Experimental data as given in patent US20240268395A1, “ANTIFUNGAL PROTEIN COMPOSITION” (GEAENZYMES CO., priority 2019, published 2024).
Ends that are not written are not given here.

Tests used:
Aspergillus niger = experiment: Agar dilution assay, inhibition of mycelial growth from spores; assay type: cell-based; conditions: fused to carrier solubility protein
From the text: FIG. 8. Agar dilution assay to assess the antifungal activity of the peptide-protein fusion SEQ ID NO: 1-MBP against Aspergillus niger. Left, representative images of agar dilution assays performed with serial dilutions of antifungal peptide-MBP fusions added to agar before solidification. Assays tested for the inhibition of mycelial growth from A. niger spores. Protein storage buffer was used as a negative control for growth inhibition, and Zeocin was used as positive control. Right, IC50 values for the peptide-protein fusion SEQ ID NO: 1-MBP. Aggregated results from up to three independent experiments were used to interpolate IC50 from the fitted curve.
FIGS. 9A-9B. Agar dilution assay comparing the antifungal activity of the peptide-protein fusions SEQ ID NO: 28-MBP and SEQ ID NO: 29-MBP against Aspergillus niger. FIG. 9A: Representative images of agar dilution assays performed with serial dilutions of antifungal peptide-MBP fusions added to agar before solidification. Assays tested for the inhibition of mycelial growth from A. niger spores. […]
To further test the versatility of antifungal peptides, these were genetically fused to a variety of different carrier solubility proteins, and their antifungal activity tested. […] Mycelium length was then estimated and analyzed (FIGS. 3, 4, and 5). […]

[1] = test system: Trichoderma reesei, Fusarium oxysporum, Rhizopus oligosporum, Aspergillus niger and two environmental isolates; experiment: Fungal inhibition in agar plates containing embedded antifungal peptides; assay type: cell-based; conditions: 150 μg/ml, without carrier protein
Method: FIG. 1. Fungal inhibition in agar plates containing a composition comprising Antifungal Peptide SEQ ID NO: 1 after 2 days at 30° C. Fungal strains inoculated in the plate: 1: Trichoderma reesei; 2: Fusarium oxysporum; 3: Rhizopus oligosporum; 4: household environmental isolated; 5: Aspergillus niger; 6: bread contamination environmental isolate. Panel A: 150 μg/ml of peptidic antifungal composition with six histidine amino-terminal residues. Panel B: 150 μg/ml of peptidic antifungal composition with six histidine amino-terminal residues pre-treated for 10 minutes at 90° C. Panel C: 175 μg/ml of peptidic antifungal composition fused to a carrier protein. Panel D: negative control without peptidic antifungal composition.
Antifungal peptide having an amino acid sequence as set forth in SEQ ID NO: 1 (Table 1) was genetically fused to 6 amino-terminal histidine residues, expressed and produced in a recombinant manner in Escherichia coli, and after cell lysis, peptide purified using immobilized metal affinity chromatography (IMAC) with nickel resin. A second variant of antifungal peptide having an amino acid sequence as set forth in SEQ ID NO: 1 was also generated, fusing the antifungal peptide to a carrier protein. […] Fungal inhibition was then assessed in agar plates containing embedded antifungal peptides, incubating 2 days at 30° C. […]

Sequence	potency at sub-MIC concentrations (reflected in the IC50), comparison of the three peptides (Aspergillus niger)	fungal growth in agar plates compared with control ([1]; six histidine amino-terminal residues, 2 days at 30° C.)	activity after pre-incubation at 90° C. (thermostability) ([1]; pre-treated for 10 minutes at 90° C.)
KRCGSQAGCPNGHCCSQYGFCGFGPEYCGRG [SEQ ID NO: 29]	highest potency		
VGECVRGRCPSGMCCSQFGYCGKGPKYCGR (not fully specified (N-terminus); cysteine pairing not given here) [SEQ ID NO: 1, tested genetically fused to 6 amino-terminal histidine residues, produced recombinantly in Escherichia coli]		impacts the growth of all fungi when compared with the control condition, although to a lesser extent with the environmental fungal isolates	does not impair its activity
